Test results as given in the NIST ThermoML archive (doi:10.1021/je020206a).
Numbers after ± are expanded uncertainties.

Test: wn = mass fraction of the nth substance listed
Conditions: 101.3 kPa, Liquid, w1 = 0.3

Row | Compound | mass density (293.15 K) | viscosity (293.15 K) | mass density (298.15 K) | viscosity (298.15 K) | mass density (303.15 K) | viscosity (303.15 K) | mass density (308.15 K) | viscosity (308.15 K) | mass density (313.15 K) | viscosity (313.15 K) | mass density (318.15 K) | viscosity (318.15 K) | mass density (323.15 K) | viscosity (323.15 K)
1 | CC(C)(N)CO [2-amino-2-methylpropan-1-ol] + O | 999.85 ± 1.1 kg/m3 | 4.89 ± 0.43 mPa·s | 997.41 ± 1.1 kg/m3 | 3.79 ± 0.34 mPa·s | 994.62 ± 1.1 kg/m3 | 3.21 ± 0.29 mPa·s | 991.22 ± 1.1 kg/m3 | 2.8 ± 0.25 mPa·s | 988.72 ± 1.2 kg/m3 | 2.24 ± 0.21 mPa·s | 986.24 ± 1.2 kg/m3 | 1.92 ± 0.18 mPa·s | 983.13 ± 1.3 kg/m3 | 1.58 ± 0.15 mPa·s
2 | NCCO [2-aminoethan-1-ol] + O | 1015.3 ± 1.1 kg/m3 | 2.63 ± 0.24 mPa·s | 1012.1 ± 1.1 kg/m3 | 2.2 ± 0.2 mPa·s | 1009.2 ± 1.1 kg/m3 | 2.1 ± 0.19 mPa·s | 1004.9 ± 1.1 kg/m3 | 1.85 ± 0.17 mPa·s | 1003.2 ± 1.2 kg/m3 | 1.6 ± 0.15 mPa·s | 1001 ± 1.2 kg/m3 | 1.5 ± 0.14 mPa·s | 997.76 ± 1.3 kg/m3 | 1.29 ± 0.12 mPa·s
3 | CN(CCO)CCO [N-methyldiethanolamine] + O | 1032.2 ± 1.1 kg/m3 | 3.46 ± 0.31 mPa·s | 1027.5 ± 1.1 kg/m3 | 3.02 ± 0.27 mPa·s | 1023.1 ± 1.1 kg/m3 | 2.68 ± 0.24 mPa·s | 1019.9 ± 1.2 kg/m3 | 2.27 ± 0.21 mPa·s | 1018.2 ± 1.2 kg/m3 | 1.92 ± 0.18 mPa·s | 1014.2 ± 1.3 kg/m3 | 1.72 ± 0.16 mPa·s | 1011.2 ± 1.3 kg/m3 | 1.49 ± 0.14 mPa·s
4 | OCCNCCO [diethanolamine] + O | 1042.7 ± 1.1 kg/m3 | 4.22 ± 0.37 mPa·s | 1037.4 ± 1.1 kg/m3 | 3.26 ± 0.3 mPa·s | 1033.2 ± 1.1 kg/m3 | 2.57 ± 0.23 mPa·s | 1029.1 ± 1.2 kg/m3 | 2.51 ± 0.23 mPa·s | 1026.4 ± 1.2 kg/m3 | 1.97 ± 0.18 mPa·s | 1022.7 ± 1.3 kg/m3 | 1.72 ± 0.16 mPa·s | 1019.3 ± 1.3 kg/m3 | 1.41 ± 0.13 mPa·s
